System: M. globosa
Test: Flow cytometry analysis of M. globosa growth inhibition by cell free fermentate
Type: cell-based, Malassezia globosa
Details: Example 6, 200 μl supernatant + 800 μl diluted culture, vs respective media control, amphotericin B 2.5 μg/ml
Protocol: The growth medium for Malassezia species was a modified Leeming & Notman (mLN) media that contained 10 g/L bacteriological peptone, 2 g/L yeast extract, 8 g/L desiccated ox bile, 10 ml/L glycerol, 0.5 g/L glycerol monostearate, 5 ml/L Tween-60 and 20 ml/L palm oil.
Lipid emulsion by the presence of lipids and surfactants in the mLN media as well as cell clumping phenotype of Malassezia spp, make it difficult to monitor cell growth by optical density measurement or colony counting after spreading a culture aliquot on plates, To circumvent this issue, flow cytometry with cell staining dyes was used to quantitatively measure cell growth in lipid emulsion media. […]
At different time points, 50 μl aliquot from each culture was subjected to mild sonication with amplitude of 5 and 1 sec on/off cycle for 30 sec using Qsonica 0700 (Qsonica, Newtown, Conn.). […] The samples were analyzed by flow cytometry using a Novocyte Quanteon (Asea). SytoBC, a cell permeable DNA/RNA intercalating dye was excited by the 488 laser and detected using a 530/30 bandwidth filter. Concanavalin A, a mannose binding lectin labeled with alexaFluor 640, was excited with the 637 nm laser and detected using a 660/20 bandwidth filter. […] Malassezia cell counts were determined by gating on high sytoBC, high ConA events and recording the event/ul values for each sample. […]

SMILES: C[C@@H]1[C@H](O)[C@@H](C)/C=C/C=C/C=C/C=C/C=C/C=C/C=C/[C@H](O[C@@H]2O[C@H](C)[C@@H](O)[C@H](N)[C@@H]2O)C[C@@H]2O[C@](O)(C[C@@H](O)C[C@@H](O)[C@H](O)CC[C@@H](O)C[C@@H](O)CC(=O)O[C@H]1C)C[C@H](O)[C@H]2C(=O)O [Amphotericin B, amphotericin B]
- % M. globosa growth inhibition (Day 1): 4%
- % M. globosa growth inhibition (Day 3): 88%
